Data reported in ChEMBL document CHEMBL5584331, “Methyl-Transferase-Like Protein 16 (METTL16): The Intriguing Journey of a Key Epitranscriptomic Player Becoming an Emerging Biological Target” (J Med Chem, 2024).

Key:
NOMO-1 = test: Antiproliferative activity against human NOMO-1 cells assessed as reduction in cell viability incubated for 48 hrs by MTT assay; assay type: functional, cell-based; details: NOMO-1, 48 h
[1] = biological target: N6-adenosine-methyltransferase catalytic subunit (Homo sapiens, UniProt Q86U44); test: Binding affinity to METTL3 (unknown origin) assessed as dissociation constant
N6-adenosine-methyltransferase catalytic subunit, sequence (Q86U44 whole entry): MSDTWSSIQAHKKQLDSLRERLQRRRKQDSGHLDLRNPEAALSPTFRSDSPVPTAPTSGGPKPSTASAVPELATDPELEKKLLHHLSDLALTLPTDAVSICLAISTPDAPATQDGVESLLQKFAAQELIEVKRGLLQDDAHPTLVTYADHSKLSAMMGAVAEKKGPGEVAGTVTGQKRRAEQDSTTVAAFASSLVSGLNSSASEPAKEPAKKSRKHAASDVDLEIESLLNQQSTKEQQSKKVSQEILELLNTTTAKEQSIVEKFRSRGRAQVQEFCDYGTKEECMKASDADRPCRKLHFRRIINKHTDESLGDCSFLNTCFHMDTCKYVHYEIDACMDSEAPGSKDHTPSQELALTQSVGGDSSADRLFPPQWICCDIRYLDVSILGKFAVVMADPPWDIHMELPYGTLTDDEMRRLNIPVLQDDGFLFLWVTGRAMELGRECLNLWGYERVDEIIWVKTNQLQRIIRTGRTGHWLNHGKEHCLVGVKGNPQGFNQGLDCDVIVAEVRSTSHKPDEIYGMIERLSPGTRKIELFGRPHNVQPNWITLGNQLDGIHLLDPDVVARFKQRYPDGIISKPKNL

Kd [1] [nM] | SMILES | IC50 (NOMO-1) [nM]
 | N#Cc1ccc(Cn2ccc3c4c(N)nc(N)nc4ccc32)cc1 | 20.6
2840 | C/C(=N\NC(N)=S)c1ccc(F)cc1 | 
3310 | C/C(=N\N=C(/N)S)c1ccccc1 [PHENYL(METHYL)THIOSEMICARBAZONE] | 
